In patent publication US12686673B2 (Blueprint Medicines Corporation, priority 2020, dated 2026):

Experiments:
Format in all cases: cell-based
[1] = molecular target: HER2 (A775_G776insYVMA) expressing Ba/F3 stable cell line (Homo sapiens, UniProt P04626, DUP772-775, cells depend on it); test: Cellular proliferation (Alamar Blue) assay, HER2 A775_G776insYVMA Ba/F3; details: 72 hr, read-out: YVMA IC50
How it was run: (§1)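 Proliferation of mutant-dependent Ba/F3 lines is measured by Alamar Blue reduction over 3 hours, following a 72 hr incubation with test compound spanning 10-0.0005 μM final in threefold dilutions. Cells go in at 15,000 per well in RPMI containing 10% FBS the day before dosing.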

[2] = test system: A431 cells; test: Cellular proliferation (Alamar Blue) assay, A431; details: Homo sapiens, A-431; A431 cells, 72 hr, Alamar Blue; read-out: A431 IC50
[3] = molecular target: EGFR(D770_N771insSVD) expressing Ba/F3 stable cell line (Homo sapiens, UniProt P00533, DUP768-770, cells depend on it); test: Cellular proliferation (Alamar Blue) assay, EGFR D770_N771insSVD Ba/F3; details: 72 hr, read-out: D770 IC50
How it was run: as §1

[4] = molecular target: EGFR (A767_dupASV) expressing Ba/F3 stable cell line (Homo sapiens, UniProt P00533, DUP767-769, cells depend on it); test: Cellular proliferation (Alamar Blue) assay, EGFR A767_dupASV Ba/F3; details: 72 hr, read-out: A767 IC50
How it was run: as §1

Chain of EGFR(D770_N771insSVD) expressing Ba/F3 stable cell line (P00533 with tags, fused parts or gaps DUP768-770): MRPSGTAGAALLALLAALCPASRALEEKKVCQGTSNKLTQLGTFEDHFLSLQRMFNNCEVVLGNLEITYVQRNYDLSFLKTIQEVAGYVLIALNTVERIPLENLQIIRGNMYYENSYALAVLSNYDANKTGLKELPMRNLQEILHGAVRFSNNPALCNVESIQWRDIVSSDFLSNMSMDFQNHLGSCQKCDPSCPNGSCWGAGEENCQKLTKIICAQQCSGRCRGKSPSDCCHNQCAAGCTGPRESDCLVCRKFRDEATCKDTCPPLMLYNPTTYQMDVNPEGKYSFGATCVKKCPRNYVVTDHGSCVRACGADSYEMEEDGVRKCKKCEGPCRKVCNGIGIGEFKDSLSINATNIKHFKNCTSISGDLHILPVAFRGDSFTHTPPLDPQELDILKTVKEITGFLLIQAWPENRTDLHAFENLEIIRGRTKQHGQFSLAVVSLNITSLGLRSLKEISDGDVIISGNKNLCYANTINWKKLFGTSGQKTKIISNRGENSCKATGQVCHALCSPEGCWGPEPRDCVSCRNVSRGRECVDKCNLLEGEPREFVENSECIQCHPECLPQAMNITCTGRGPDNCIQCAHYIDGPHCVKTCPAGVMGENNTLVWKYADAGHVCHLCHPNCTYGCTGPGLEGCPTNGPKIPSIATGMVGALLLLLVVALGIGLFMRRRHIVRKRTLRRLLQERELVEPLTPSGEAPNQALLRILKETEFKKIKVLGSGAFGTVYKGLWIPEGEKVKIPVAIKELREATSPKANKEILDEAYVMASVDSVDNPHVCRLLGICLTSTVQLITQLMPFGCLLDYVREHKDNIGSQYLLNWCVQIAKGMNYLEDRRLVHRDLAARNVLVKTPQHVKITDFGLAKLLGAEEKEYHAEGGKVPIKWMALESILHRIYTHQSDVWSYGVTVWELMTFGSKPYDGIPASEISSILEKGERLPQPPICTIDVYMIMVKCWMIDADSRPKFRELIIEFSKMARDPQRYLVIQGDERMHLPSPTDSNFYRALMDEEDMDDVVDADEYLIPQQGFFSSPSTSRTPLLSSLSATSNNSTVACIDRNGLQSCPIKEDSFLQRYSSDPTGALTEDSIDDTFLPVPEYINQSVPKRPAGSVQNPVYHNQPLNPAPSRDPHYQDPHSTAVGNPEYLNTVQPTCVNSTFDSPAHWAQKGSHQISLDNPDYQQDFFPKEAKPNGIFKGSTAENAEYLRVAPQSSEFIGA
Chain of HER2 (A775_G776insYVMA) expressing Ba/F3 stable cell line (P04626 with tags, fused parts or gaps DUP772-775): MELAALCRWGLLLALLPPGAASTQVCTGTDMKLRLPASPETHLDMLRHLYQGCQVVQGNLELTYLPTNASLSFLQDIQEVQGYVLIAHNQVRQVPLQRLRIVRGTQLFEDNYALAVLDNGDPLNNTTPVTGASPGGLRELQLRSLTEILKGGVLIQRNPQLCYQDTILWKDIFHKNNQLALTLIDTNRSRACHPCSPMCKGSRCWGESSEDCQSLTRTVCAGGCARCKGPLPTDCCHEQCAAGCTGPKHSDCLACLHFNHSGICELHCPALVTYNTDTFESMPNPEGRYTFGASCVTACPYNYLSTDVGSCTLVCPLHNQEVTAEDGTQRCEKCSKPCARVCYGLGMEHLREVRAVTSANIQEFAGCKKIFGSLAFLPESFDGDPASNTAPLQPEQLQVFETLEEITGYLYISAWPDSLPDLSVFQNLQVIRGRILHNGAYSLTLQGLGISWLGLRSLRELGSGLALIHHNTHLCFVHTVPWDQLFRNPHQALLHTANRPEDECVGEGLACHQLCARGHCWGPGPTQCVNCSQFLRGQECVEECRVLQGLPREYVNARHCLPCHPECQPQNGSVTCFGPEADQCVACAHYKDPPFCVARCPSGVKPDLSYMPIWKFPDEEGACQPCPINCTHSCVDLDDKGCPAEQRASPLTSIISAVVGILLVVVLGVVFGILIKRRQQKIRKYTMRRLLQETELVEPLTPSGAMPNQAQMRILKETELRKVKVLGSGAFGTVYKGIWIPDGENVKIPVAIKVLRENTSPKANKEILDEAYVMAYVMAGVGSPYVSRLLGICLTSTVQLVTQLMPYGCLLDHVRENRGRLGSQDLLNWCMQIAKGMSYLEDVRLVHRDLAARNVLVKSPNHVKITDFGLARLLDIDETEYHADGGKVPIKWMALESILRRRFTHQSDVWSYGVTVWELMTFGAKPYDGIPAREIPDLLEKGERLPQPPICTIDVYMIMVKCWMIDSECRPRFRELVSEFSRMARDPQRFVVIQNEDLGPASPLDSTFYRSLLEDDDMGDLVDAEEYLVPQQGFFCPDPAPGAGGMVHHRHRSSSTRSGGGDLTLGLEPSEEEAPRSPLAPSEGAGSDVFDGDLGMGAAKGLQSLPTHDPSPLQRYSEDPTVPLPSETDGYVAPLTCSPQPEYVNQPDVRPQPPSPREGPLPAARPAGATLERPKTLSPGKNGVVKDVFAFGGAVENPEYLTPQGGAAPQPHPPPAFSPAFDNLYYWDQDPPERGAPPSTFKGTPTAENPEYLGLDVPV
Chain of EGFR (A767_dupASV) expressing Ba/F3 stable cell line (P00533 with tags, fused parts or gaps DUP767-769): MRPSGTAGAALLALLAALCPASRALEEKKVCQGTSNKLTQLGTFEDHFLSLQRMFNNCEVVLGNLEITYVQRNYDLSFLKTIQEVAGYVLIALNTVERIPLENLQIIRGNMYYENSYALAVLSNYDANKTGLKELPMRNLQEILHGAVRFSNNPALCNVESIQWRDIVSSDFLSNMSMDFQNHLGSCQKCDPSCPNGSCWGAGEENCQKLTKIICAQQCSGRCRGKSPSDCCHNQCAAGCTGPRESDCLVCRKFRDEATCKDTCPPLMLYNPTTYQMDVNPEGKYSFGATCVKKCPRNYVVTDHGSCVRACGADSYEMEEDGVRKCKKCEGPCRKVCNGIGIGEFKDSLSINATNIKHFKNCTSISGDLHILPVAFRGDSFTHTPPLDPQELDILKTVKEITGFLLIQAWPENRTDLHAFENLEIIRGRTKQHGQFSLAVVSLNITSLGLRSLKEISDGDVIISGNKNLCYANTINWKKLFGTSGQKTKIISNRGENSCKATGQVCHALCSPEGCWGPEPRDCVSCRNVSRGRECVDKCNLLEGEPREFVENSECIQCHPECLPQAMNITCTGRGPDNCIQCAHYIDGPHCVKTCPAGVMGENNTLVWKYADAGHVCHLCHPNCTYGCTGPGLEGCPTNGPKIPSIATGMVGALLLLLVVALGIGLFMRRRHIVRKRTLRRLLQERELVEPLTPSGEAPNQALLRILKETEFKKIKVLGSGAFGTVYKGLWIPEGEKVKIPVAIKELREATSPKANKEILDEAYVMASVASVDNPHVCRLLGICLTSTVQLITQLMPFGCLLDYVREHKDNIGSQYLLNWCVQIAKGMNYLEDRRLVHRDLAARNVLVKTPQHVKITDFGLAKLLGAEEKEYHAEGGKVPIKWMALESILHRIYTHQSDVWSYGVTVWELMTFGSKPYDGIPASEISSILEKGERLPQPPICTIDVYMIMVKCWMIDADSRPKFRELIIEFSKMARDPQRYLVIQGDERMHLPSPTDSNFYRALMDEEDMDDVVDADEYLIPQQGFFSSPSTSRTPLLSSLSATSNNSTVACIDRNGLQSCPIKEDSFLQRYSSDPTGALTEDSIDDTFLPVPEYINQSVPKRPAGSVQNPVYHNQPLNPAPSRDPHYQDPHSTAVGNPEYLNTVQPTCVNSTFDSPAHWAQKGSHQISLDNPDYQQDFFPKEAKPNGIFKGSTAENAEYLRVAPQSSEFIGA

| SMILES | GI50 [1] [nM] | IC50 [2] [nM] | GI50 [3] [nM] | GI50 [4] [nM] |
| --- | --- | --- | --- | --- |
| C=CC(=O)Nc1ccc(F)c(Nc2nc(Nc3cn(CCN(C)C)nc3Cl)ncc2-c2ccc(Br)cc2)c1 [Compound 208, N-(3-((5-(4-bromophenyl)-2-((3-chloro-1-(2-(dimethylamino)ethyl)-1H-pyrazol-4-yl)amino)pyrimidin-4-yl)amino)-4-fluorophenyl)acrylamide] | 402 | 46 | 76 | 121 |
| C=CC(=O)Nc1ccc(F)c(Nc2cc(Nc3cnn(C)c3)ncc2-c2ccc(C(F)(F)F)cc2)c1 [Compound 210, N-[4-fluoro-3-({2-[(1-methyl-1H-pyrazol-4-yl)amino]-5-[4-(trifluoromethyl)phenyl]pyridin-4-yl}amino)phenyl]prop-2-enamide] | 3580 | 4480 | 2840 | 2900 |
| C=CC(=O)Nc1ccc(F)c(N(C)c2nc(Nc3cnn(C)c3)ncc2-c2ccc(C(F)(F)F)cc2)c1 [Compound 228, N-(4-fluoro-3-(methyl(2-((1-methyl-1H-pyrazol-4-yl)amino)-5-(4-(trifluoromethyl)phenyl)pyrimidin-4-yl)amino)phenyl)acrylamide] | 1250 | 4120 | 952 | 891 |
| C=CC(=O)Nc1cc(F)cc(Nc2nc(Nc3cnn(C)c3)ncc2-c2ccc(C(F)(F)F)cc2)c1 [Compound 239, N-(3-fluoro-5-((2-((1-methyl-1H-pyrazol-4-yl)amino)-5-(4-(trifluoromethyl)phenyl)pyrimidin-4-yl)amino)phenyl)acrylamide] | 251 | 229 | 36 | 91 |
| C=CC(=O)Nc1ccc(F)c(Nc2nc(Nc3cnn(CC(C)(C)O)c3)ncc2-c2ccc(C(F)(F)F)cc2)c1 [Compound 240, N-(4-fluoro-3-((2-((1-(2-hydroxy-2-methylpropyl)-1H-pyrazol-4-yl)amino)-5-(4-(trifluoromethyl)phenyl)pyrimidin-4-yl)amino)phenyl)acrylamide] | 2010 | 441 | 395 | 861 |
| C=CC(=O)Nc1ccc(F)c(Nc2nc(Nc3cn(CCO)nc3Cl)ncc2-c2ccc(C(F)(F)F)cc2)c1 [Compound 241, N-(3-((2-((3-chloro-1-(2-hydroxyethyl)-1H-pyrazol-4-yl)amino)-5-(4-(trifluoromethyl)phenyl)pyrimidin-4-yl)amino)-4-fluorophenyl)acrylamide] | 343 | 105 | 105 | 146 |
| C=CC(=O)Nc1ccc(F)c(Nc2nc(Nc3cnn(C)c3)ncc2C#CC2CC2)c1 [Compound 244, N-(3-{[5-(2-cyclopropylethynyl)-2-[(1-methyl-1H-pyrazol-4-yl)amino]pyrimidin-4-yl]amino}-4-fluorophenyl)prop-2-enamide] | 2250 | 1810 | 1890 | 2180 |
| C=CC(=O)Nc1ccc(F)c(Nc2nc(Nc3cn(C)nc3Cl)ncc2-c2ccc(C(F)(F)F)cc2)c1 [Compound 245, N-[3-({2-[(3-chloro-1-methyl-1H-pyrazol-4-yl)amino]-5-[4-(trifluoromethyl)phenyl]pyrimidin-4-yl}amino)-4-fluorophenyl]prop-2-enamide] | 202 | 63 | 91 | 115 |
| C=CC(=O)Nc1ccc(F)c(Nc2nc(Nc3cnn(C(C)(C)C#N)c3)ncc2-c2ccc(C(F)(F)F)cc2)c1 [Compound 246, N-(3-((2-((1-(2-cyanopropan-2-yl)-1H-pyrazol-4-yl)amino)-5-(4-(trifluoromethyl)phenyl)pyrimidin-4-yl)amino)-4-fluorophenyl)acrylamide] | 2070 | 368 | 299 | 303 |
| [2H]C([2H])=CC(=O)Nc1ccc(F)c(Nc2nc(Nc3cn(C)nc3Cl)ncc2-c2ccc(C(F)(F)F)cc2)c1 [Compound 249, N-(3-((2-((3-chloro-1-methyl-1H-pyrazol-4-yl)amino)-5-(4-(trifluoromethyl)phenyl)pyrimidin-4-yl)amino)-4-fluorophenyl)acrylamide-3,3-d2] | 1050 | 123 | 101 | 261 |
| C#CC(=O)Nc1ccc(F)c(Nc2nc(Nc3cnn(C)c3)ncc2-c2ccc(C(F)(F)F)cc2)c1 [Compound 254, N-[4-fluoro-3-({2-[(1-methyl-1H-pyrazol-4-yl)amino]-5-[4-(trifluoromethyl)phenyl]pyrimidin-4-yl}amino)phenyl] prop-2-ynamide] | 8670 | 1000 | 8460 | 9470 |
| C=CC(=O)Nc1ccc(F)c(Nc2nc(Nc3cnn(C)c3)ncc2Br)c1 [Compound 256, N-(3-((5-bromo-2-((1-methyl-1H-pyrazol-4-yl)amino)pyrimidin-4-yl)amino)-4-fluorophenyl)acrylamide] | 755 | 1020 | 923 | 411 |
| C=CC(=O)Nc1cccc(Nc2nc(Nc3cnn(C)c3)ncc2-c2ccc(CC(F)(F)F)cc2)c1 [Compound 293, N-(3-((2-((1-methyl-1H-pyrazol-4-yl)amino)-5-(4-(2,2,2-trifluoroethyl)phenyl)pyrimidin-4-yl)amino)phenyl)acrylamide] | 110 | 4 | 21 | 28 |
| C=CC(=O)Nc1cc(F)cc(Nc2nc(Nc3cnn(C)c3)ncc2-c2ccc(CC(F)(F)F)cc2)c1 [Compound 295, N-(3-fluoro-5-((2-((1-methyl-1H-pyrazol-4-yl)amino)-5-(4-(2,2,2-trifluoroethyl)phenyl)pyrimidin-4-yl)amino)phenyl)acrylamide] | 210 | 6 | 34 | 38 |

Results, then the compound that gave them:

| GI50 [1] [nM] | IC50 [2] [nM] | GI50 [3] [nM] | GI50 [4] [nM] | SMILES |
| --- | --- | --- | --- | --- |
| 217 | 44 | 35 | 34 | C=CC(=O)Nc1cccc(Nc2nc(Nc3cnn(C)c3)ncc2-c2ccc(Br)cc2)c1F [Compound 202, N-(3-((5-(4-bromophenyl)-2-((1-methyl-1H-pyrazol-4-yl)amino)pyrimidin-4-yl)amino)-2-fluorophenyl)acrylamide] |
| 688 | 28 | 93 | 131 | C=CC(=O)Nc1ccc(F)c(Nc2nc(Nc3cn(C)nc3Cl)ncc2-c2ccc(Br)cc2)c1 [Compound 204, N-(3-((5-(4-bromophenyl)-2-((3-chloro-1-methyl-1H-pyrazol-4-yl)amino)pyrimidin-4-yl)amino)-4-fluorophenyl)acrylamide] |
| 278 | 132 | 39 | 73 | C=CC(=O)Nc1ccc(F)c(Nc2nc(Nc3cnn(C4COC4)c3)ncc2-c2ccc(Br)cc2)c1 [Compound 205, N-(3-((5-(4-bromophenyl)-2-((1-(oxetan-3-yl)-1H-pyrazol-4-yl)amino)pyrimidin-4-yl)amino)-4-fluorophenyl)acrylamide] |
| 120 | 36 | 35 | 44 | C=CC(=O)Nc1ccc(F)c(Nc2nc(Nc3cnn(CCO)c3)ncc2-c2ccc(Br)cc2)c1 [Compound 206, N-(3-((5-(4-bromophenyl)-2-((1-(2-hydroxyethyl)-1H-pyrazol-4-yl)amino)pyrimidin-4-yl)amino)-4-fluorophenyl)acrylamide] |
| 3010 | 617 | 312 | 90 | C=CC(=O)Nc1cc(Nc2nc(Nc3cnn(C)c3)ncc2-c2ccc(C(F)(F)F)cc2)ccc1F [Compound 238, N-(2-fluoro-5-((2-((1-methyl-1H-pyrazol-4-yl)amino)-5-(4-(trifluoromethyl)phenyl)pyrimidin-4-yl)amino)phenyl)acrylamide] |
| 204 | 65 | 34 | 47 | [2H]C([2H])=CC(=O)Nc1ccc(F)c(Nc2nc(Nc3cnn(C)c3)ncc2-c2ccc(Br)cc2)c1 [Compound 250, N-(3-((5-(4-bromophenyl)-2-((1-methyl-1H-pyrazol-4-yl)amino)pyrimidin-4-yl)amino)-4-fluorophenyl)acrylamide-3,3-d2] |
| 471 | 93 | 149 | 328 | C=CC(=O)Nc1ccc(F)c(Nc2nc(Nc3cnn(C)c3)ncc2-c2ccc3ncnn3c2)c1 [Compound 279, N-(3-((5-([1,2,4]triazolo[1,5-a]pyridin-6-yl)-2-((1-methyl-1H-pyrazol-4-yl)amino)pyrimidin-4-yl)amino)-4-fluorophenyl)acrylamide] |
| 803 | 45 | 100 | 80 | C=CC(=O)Nc1ccc(F)c(Nc2nc(Nc3cnn(C)c3)ncc2-c2ccc(C3(C(F)(F)F)CC3)cc2)c1 [Compound 294, N-(4-fluoro-3-((2-((1-methyl-1H-pyrazol-4-yl)amino)-5-(4-(1-(trifluoromethyl)cyclopropyl)phenyl)pyrimidin-4-yl)amino)phenyl)acrylamide] |
| 971 | 32 | 84 | 106 | C=CC(=O)Nc1ccc(F)c(Nc2nc(Nc3cnn(C)c3)ncc2-c2ccc(C(F)(F)C(F)(F)F)cc2)c1 [Compound 296, N-(4-fluoro-3-((2-((1-methyl-1H-pyrazol-4-yl)amino)-5-(4-(perfluoroethyl)phenyl)pyrimidin-4-yl)amino)phenyl)acrylamide] |
